{
  "source": "paper PMC7377239",
  "about": "“Cardiovascular Effects of Polychlorinated Biphenyls and Their Major Metabolites” (Environmental Health Perspectives, 2020)",
  "key": {"HUVECs [1]": {"system": "HUVECs", "assay": "High-content imaging cytotoxicity in HUVECs, 24 h", "type": "cell-based, human", "conditions": "Homo sapiens, HUVEC, 24 h; for viability at 0.01 µM / activity at 0.01 µM / viability at 0.1 µM / activity at 0.1 µM / viability at 1 µM / activity at 1 µM / viability at 10 µM / activity at 10 µM / viability at 100 µM / activity at 100 µM: 0.00 µM = 100.00; for viability at 0.1 µM / activity at 0.1 µM: 0.10 µM", "method_in_brief": "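Point-of-departure values derive from four-parameter logistic fits of vehicle-normalized imaging phenotypes (Hoechst 33342, MitoTracker Orange, calcein AM). The fits follow 24 h exposure of HUVEC monolayers at 37°C and 5% CO2, with a top tested concentration of 100μM.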"}, "HUVECs [2]": {"system": "HUVECs", "assay": "Tube formation (tubulogenesis) assay in HUVECs, 18 h", "type": "cell-based, human", "conditions": "Homo sapiens, HUVEC, 18 h; for activity at 0.1 µM: 0.10 µM", "method_in_brief": "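HUVECs (passage 1–5) seeded on reduced-growth-factor basement membrane and exposed to compounds overnight at 37°C, 5% CO2, in 2× maintenance medium with 12.5 ng/mL VEGF; 0.5% DMSO vehicle. Calcein AM-stained tube networks imaged and analysed; vehicle-normalized readouts fit to four-parameter logistic, POD set at one SD of vehicle means.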"}, "[3]": {"conditions": "HUVECs, 24 hr, read-out: huvec.cyto.24hr"}, "[4]": {"conditions": "HUVECs, 24 hr, read-out: huvec.mito.24hr"}, "[5]": {"conditions": "HUVECs, 24 hr, read-out: huvec.mitoint.24hr"}, "[6]": {"conditions": "HUVECs, 24 hr, read-out: huvec.nma.24hr"}, "[7]": {"conditions": "HUVECs, 24 hrs, read-out: huvec.tc.24hrs"}, "[8]": {"conditions": "HUVECs, 0.00 µM = 100.00, read-out: huvec.mtl.18hr"}, "[9]": {"conditions": "HUVECs, 0.00 µM = 100.00, read-out: huvec.tlps.18hr"}, "[10]": {"conditions": "HUVECs, 0.00 µM = 100.00, read-out: huvec.tta.18hr"}, "[11]": {"conditions": "HUVECs, 0.00 µM = 100.00, read-out: huvec.ttl.18hr"}},
  "note": "Read-outs that look alike come from different tables or passages of the source.",
  "data": [
    {"smiles": "Oc1ccc(O)c(-c2ccc(Cl)cc2)c1", "note": "[2',5'-DiOH PCB3]", "values": [
      {"measurement": "viability at 0.01 µM", "setting": "HUVECs [1]; [3]", "result": 84.3, "unit": "%"},
      {"measurement": "activity at 0.01 µM", "setting": "HUVECs [1]; [4]", "result": 83.2, "unit": "%"},
      {"measurement": "activity at 0.01 µM", "setting": "HUVECs [1]; [5]", "result": 99.1, "unit": "%"},
      {"measurement": "activity at 0.01 µM", "setting": "HUVECs [1]; [6]", "result": 101, "unit": "%"},
      {"measurement": "viability at 0.1 µM", "setting": "HUVECs [1]; [3]", "result": 103, "unit": "%"},
      {"measurement": "activity at 0.1 µM", "setting": "HUVECs [1]; [4]", "result": 103, "unit": "%"},
      {"measurement": "activity at 0.1 µM", "setting": "HUVECs [1]; [5]", "result": 112, "unit": "%"},
      {"measurement": "activity at 0.1 µM", "setting": "HUVECs [1]; [6]", "result": 97.2, "unit": "%"},
      {"measurement": "viability at 1 µM", "setting": "HUVECs [1]; [3]", "result": 75, "unit": "%"},
      {"measurement": "activity at 1 µM", "setting": "HUVECs [1]; [4]", "result": 73.6, "unit": "%"},
      {"measurement": "activity at 1 µM", "setting": "HUVECs [1]; [5]", "result": 104, "unit": "%"},
      {"measurement": "activity at 1 µM", "setting": "HUVECs [1]; [6]", "result": 101, "unit": "%"},
      {"measurement": "viability at 10 µM", "setting": "HUVECs [1]; [3]", "result": 57.5, "unit": "%"},
      {"measurement": "activity at 10 µM", "setting": "HUVECs [1]; [4]", "result": 27.6, "unit": "%"},
      {"measurement": "activity at 10 µM", "setting": "HUVECs [1]; [5]", "result": 10.3, "unit": "%"},
      {"measurement": "activity at 10 µM", "setting": "HUVECs [1]; [6]", "result": 96.2, "unit": "%"},
      {"measurement": "viability at 100 µM", "setting": "HUVECs [1]; [3]", "result": 2.82, "unit": "%"},
      {"measurement": "activity at 100 µM", "setting": "HUVECs [1]; [4]", "result": 0, "unit": "%"},
      {"measurement": "activity at 100 µM", "setting": "HUVECs [1]; [5]", "result": 0, "unit": "%"},
      {"measurement": "activity at 100 µM", "setting": "HUVECs [1]; [6]", "result": 83.3, "unit": "%"},
      {"measurement": "minimal effective concentration", "setting": "HUVECs [1]; HUVECs, 24 hr, top concentration 100.00 µM, read-out: huvec.cyto.24hr POD", "result": 0.12, "unit": "µM"},
      {"measurement": "minimal effective concentration", "setting": "HUVECs [1]; HUVECs, 24 hr, top concentration 100.00 µM, read-out: huvec.mito.24hr POD", "result": 0.13, "unit": "µM"},
      {"measurement": "minimal effective concentration", "setting": "HUVECs [1]; HUVECs, 24 hr, top concentration 100.00 µM, read-out: huvec.mitoint.24hr POD", "result": 3.51, "unit": "µM"},
      {"measurement": "minimal effective concentration", "setting": "HUVECs [1]; HUVECs, 24 hr, top concentration 100.00 µM, read-out: huvec.nma.24hr POD", "result": 8.87, "unit": "µM"},
      {"measurement": "viability at 0.01 µM", "setting": "HUVECs [1]; [7]", "result": 84.5, "unit": "%"},
      {"measurement": "viability at 0.1 µM", "setting": "HUVECs [1]; [7]", "result": 103, "unit": "%"},
      {"measurement": "viability at 1 µM", "setting": "HUVECs [1]; [7]", "result": 75, "unit": "%"},
      {"measurement": "viability at 10 µM", "setting": "HUVECs [1]; [7]", "result": 57.7, "unit": "%"},
      {"measurement": "viability at 100 µM", "setting": "HUVECs [1]; [7]", "result": 89.6, "unit": "%"},
      {"measurement": "minimal effective concentration", "setting": "HUVECs [1]; HUVECs, 24 hrs, top concentration 100.00 µM, read-out: huvec.tc.24hrs POD", "result": 0.12, "unit": "µM"},
      {"measurement": "activity at 0.01 µM", "setting": "HUVECs [2]; [8]", "result": 99, "unit": "%"},
      {"measurement": "activity at 0.01 µM", "setting": "HUVECs [2]; [9]", "result": 90.3, "unit": "%"},
      {"measurement": "activity at 0.01 µM", "setting": "HUVECs [2]; [10]", "result": 127, "unit": "%"},
      {"measurement": "activity at 0.01 µM", "setting": "HUVECs [2]; [11]", "result": 123, "unit": "%"},
      {"measurement": "activity at 0.1 µM", "setting": "HUVECs [2]; [8]", "result": 104, "unit": "%"},
      {"measurement": "activity at 0.1 µM", "setting": "HUVECs [2]; [9]", "result": 135, "unit": "%"},
      {"measurement": "activity at 0.1 µM", "setting": "HUVECs [2]; [10]", "result": 107, "unit": "%"},
      {"measurement": "activity at 0.1 µM", "setting": "HUVECs [2]; [11]", "result": 107, "unit": "%"},
      {"measurement": "activity at 1 µM", "setting": "HUVECs [2]; [8]", "result": 91.9, "unit": "%"},
      {"measurement": "activity at 1 µM", "setting": "HUVECs [2]; [9]", "result": 93.2, "unit": "%"},
      {"measurement": "activity at 1 µM", "setting": "HUVECs [2]; [10]", "result": 87.2, "unit": "%"},
      {"measurement": "activity at 1 µM", "setting": "HUVECs [2]; [11]", "result": 90.1, "unit": "%"},
      {"measurement": "activity at 10 µM", "setting": "HUVECs [2]; [8]", "result": 64.1, "unit": "%"},
      {"measurement": "activity at 10 µM", "setting": "HUVECs [2]; [9]", "result": 21.9, "unit": "%"},
      {"measurement": "activity at 10 µM", "setting": "HUVECs [2]; [10]", "result": 19.3, "unit": "%"},
      {"measurement": "activity at 10 µM", "setting": "HUVECs [2]; [11]", "result": 19.9, "unit": "%"},
      {"measurement": "activity at 100 µM", "setting": "HUVECs [2]; [8]", "result": 57.8, "unit": "%"},
      {"measurement": "activity at 100 µM", "setting": "HUVECs [2]; [9]", "result": 9.87, "unit": "%"},
      {"measurement": "activity at 100 µM", "setting": "HUVECs [2]; [10]", "result": 0.82, "unit": "%"},
      {"measurement": "activity at 100 µM", "setting": "HUVECs [2]; [11]", "result": 1.52, "unit": "%"},
      {"measurement": "minimal effective concentration", "setting": "HUVECs [2]; HUVECs, top concentration 100.00 µM, read-out: huvec.mtl.18hr POD", "result": 1.26, "unit": "µM"},
      {"measurement": "minimal effective concentration", "setting": "HUVECs [2]; HUVECs, top concentration 100.00 µM, read-out: huvec.tlps.18hr POD", "result": 1.55, "unit": "µM"},
      {"measurement": "minimal effective concentration", "setting": "HUVECs [2]; HUVECs, top concentration 100.00 µM, read-out: huvec.tta.18hr POD", "result": 1.39, "unit": "µM"},
      {"measurement": "minimal effective concentration", "setting": "HUVECs [2]; HUVECs, top concentration 100.00 µM, read-out: huvec.ttl.18hr POD", "result": 1.23, "unit": "µM"}
    ]},
    {"smiles": "Clc1ccc(-c2ccccc2)cc1", "note": "[PCB 3, 4-chlorobiphenyl]", "values": [
      {"measurement": "minimal effective concentration", "setting": "HUVECs [1]; cyto, 24 hr, read-out: POD huvec.cyto.24hr", "result": 100, "unit": "µM"},
      {"measurement": "minimal effective concentration", "setting": "HUVECs [1]; mito, 24 hr, read-out: POD huvec.mito.24hr", "result": 100, "unit": "µM"},
      {"measurement": "minimal effective concentration", "setting": "HUVECs [1]; mitoint, 24 hr, read-out: POD huvec.mitoint.24hr", "result": 100, "unit": "µM"},
      {"measurement": "minimal effective concentration", "setting": "HUVECs [1]; nma, 24 hr, read-out: POD huvec.nma.24hr", "result": 100, "unit": "µM"},
      {"measurement": "minimal effective concentration", "setting": "HUVECs [1]; tc, 24 hr, read-out: POD huvec.tc.24hr", "result": 100, "unit": "µM"},
      {"measurement": "minimal effective concentration", "setting": "HUVECs [2]; tube formation mtl, read-out: POD huvec.mtl.18hr", "result": 25.3, "unit": "µM"},
      {"measurement": "minimal effective concentration", "setting": "HUVECs [2]; tube formation tlps, read-out: POD huvec.tlps.18hr", "result": 100, "unit": "µM"},
      {"measurement": "minimal effective concentration", "setting": "HUVECs [2]; tube formation tta, read-out: POD huvec.tta.18hr", "result": 0.67, "unit": "µM"},
      {"measurement": "minimal effective concentration", "setting": "HUVECs [2]; tube formation ttl, read-out: POD huvec.ttl.18hr", "result": 0.7, "unit": "µM"}
    ]}
  ]
}
